Test [1] deals with breast cancer cells (MDA-MB-231). In words: In cell 13C-NMR detection of 1,4-13C2-malate using 1,4-13C2-fumarate as hyperpolarized marker. Format: cell-based, human. To be noted: 5 million cells; 30 s; normalized to soluble protein; vs 184B5; FIG. 2. Here is the method:
Step 1: 1,4-^13C2 Fumaric acid (274 mg, 2.32 mmol) was dissolved in a DMSO solution (1660 μl) of trityl radical (Tris(8-carboxy-2,2,6,6-(tetra(methoxyethyl)-benzo-[1,2-4,5′]-bis-(1,3)-dithiole-4-yl)-methyl sodium salt) (19 mM) and gadolinium trimeric complex (Gadolinium chelate of 1,3,5-tris-(N-(DO3A-acetmido)-N-methyl-4-amino-2-methylphenyl)-[1,3,5]triazinane-2,4,6-trione)) (0.8 mM). A sample of this solution (32.5 mg) was hyperpolarized for 60 minutes, at 93.900 GHz and 1.3 K. The sample was dissolved in phosphate buffer (4 ml, pH 7.3, 40 mM) with addition of sodium hydroxide (22 μl, 12M) to neutralize the acid in the hyperpolarized sample.
Step 2: 100 μl of hyperpolarized sodium 1,4-^13C2-fumarate from step 1 was mixed into 500 μl RPMI medium containing 5 million breast cancer cells (MDA-MB-231, human epithelial breast cancer cell line) in a 5 mm NMR tube and placed in a 9.4 T NMR magnet. Signals of 1,4-^13C-malate were detected by acquiring a set of ^13C-MR spectra every 2 s with a 15 degree RF pulse. The amount of 1,4-^13C-malate was calculated 30 s after mixing the hyperpolarized sodium 1,4-^13C2-fumarate into the medium containing cells. Further, the amount of soluble protein in the MDA-MB-231 cells was determined, and the amount of 1,4-^13C-malate was normalized to the protein amount. […]

Test [2] relates to human prostate cancer cells (PC-3). As to the kind of experiment: Metabolism of hyperpolarized substrates in intact human prostate cancer cells. Type of test: cell-based. To be noted: for Metabolic conversion (a.u.) PC-3 cells: 20 million cells, maximum signal of product 1-13C lactate. As for the experimental part:
(§1) Human breast cancer cells (MCF-7) and human prostate cancer cells (PC-3) were grown in RPMI medium with 10% FBS and antibiotics. The cells were at confluence harvested by trypsination and washed once with 5 ml PBS. They were spun down and re-dissolved to a concentration of 20 million cells in 500 μl 40 mM phosphate buffer pH 7.3.
(§2) The cell suspensions were transferred to a 10 mm NMR tube and placed with connecting tubing in a 14.1 T magnet at 37 C.
(§3) Finland radical, carboxylic acid form (1 mg, 0.65 μmol) was dissolved in 1,3-^13C2 ethyl acetoacetate (50 μl, 51 mg, […]). To the solution was added a DMSO solution of the gadolinium complex ([alfa1,alfa4,alfa7-tris[(phenylmethoxy)methyl]-1,4,7,10-tetraazacyclododecane-1,4,7,10-tetraacetato(4-)]gadolinate(1-)]hydrogen) (0.8 mg of a 100 μmol/g solution). The concentration of radical and gadolinium were 13 mM and 1.6 mM respectively. 20 μmol of this composition was hyperpolarised under DNP conditions at 1.2 K in a 3.35 T magnetic field under irradiation with microwave (93.900 GHz). The polarization build-up constant was 750 s. The solid-state polarization was approx. 20%.
(§4) The hyperpolarized sample was dissolved in 5 ml phosphate buffer (40 mM, pH 7.3). The pH after dissolution was 7.3. Following dissolution, 1 ml of the substrate mixture was injected into 20 million cells in suspension. A series of 20 degree pulses every 2 s (56 scans in total) was acquired. The acquisition was started just before injection of the hyperpolarized substrate. Data are presented metabolic signal build-up as a function of time and as maximum metabolite signal.
(§5) The cells were grown and harvested or purified as described in example 3.10. The experiments were performed with single substrates administered to 20 million MCF-7 cells, PC-3 cells or lymphocytes dissolved in a volume of 500 μl 40 mM phosphate buffer pH 7.3. The cell suspensions were transferred to a 10 mm NMR tube and placed with connecting tubing in a 14.1 T magnet at 37° C.
(§6) ^13C6-d7-glucose (22.8 mg, 0.118 mmol) was dissolved in polarization medium (25.0 mg). […]

For test [3], the system named is breast cancer cells (MCF-7) in the background of human lymphocytes. As to the kind of experiment: Co-polarized substrates in model voxels of breast cancer cells in lymphocyte background. Format: cell-based. To be noted: for Metabolic conversion (a.u) 50% cancer cells: 1 million MCF-7 cells and 20 million lymphocytes; for Metabolic conversion (a.u) 100% cancer cells: 2 million MCF-7 cells, 2x2x2 voxel model; for Metabolic conversion (a.u) 0% cancer cells: 40 million lymphocytes. The source says: The real time metabolism of breast cancer cells was compared with the metabolism of the lymph node background in model systems containing either only cancer cells (100% cancer), only lymphocytes (0% cancer) or a combination of the two cell types (50% cancer) in cellular concentrations expected to be present in a spatially resolved lymph node containing a macro metastasis. In the clinic, the interest is focused on macro metastasis since these are statistically those, which indicate aggressive cancers (P. Blumencranz, Surg Oncol Clin N Am 20 (2011) 467-485).
The model system was designed assuming a macro metastasis, which is defined to have a minimum diameter of 2 mm (P J. Diest et al., (2010) Breast disease 31: 65-81). In a 2×2×2 mm voxel, 50% of the volume will be cancer cells assuming that the macro metastasis is shaped as a sphere. Three experimental systems were established and carried out: 1) 2 million MCF-7 cells (corresponding to 100% cancer cells in a 2×2×2 voxel), 2) 1 million MCF-7 cells and 20 million lymphocytes (corresponding to 50% cancer cells in a 2×2×2 voxel) and 3) 40 million lymphocytes (corresponding to 0% cancer cells in a 2×2×2 voxel). The cells were grown and harvested or purified as described in example 3.10. The DNP preparations of 1-^13C-pyruvate and 1,3-^13C2-ethyl acetoacetate were made as described in examples 3.10. and 3.11. The substrates (20 μmol each) were co-polarized. The polarization, dissolution and administration to the cells were made as in example 3.11.

In test [4] the test system is human breast cancer cells (MCF-7). In words: Metabolism of hyperpolarized substrates in intact human breast cancer cells. Type of test: cell-based. To be noted: for Metabolic conversion (a.u.) MCF-7 cells: 20 million cells, maximum signal of product 1-13C lactate; for conversion in breast cancer cells over lymphocytes: quantified by cell number. As for the experimental part:
as §1, §2, §3, §4, §5
^13C6-d7-glucose (22.8 mg, 0.118 mmol) was dissolved in polarization medium (25.0 mg). The polarization medium was made of Ox063 radical (19.1 mg, 13.3 μmol) was dissolved in 465 μl water. To this solution was added Gadoteridol (40 mg of 50 μmol/g solution in water). Concentrations: [Ox063]=26.5 mM, [Gd]=4 mM. The total weight of the glucose preparation was: 47.8 mg yielding 2.47 mmol glucose/g preparation.
1-^13C pyruvic acid (55 μl, 70.0 mg) was mixed with Finland radical, sodium salt (1.5 mg, 0.94 μmol) and Gadoteridol (2.1 mg of 50 μmol/g solution in water). Concentrations of radical and Gadolinium were: 17 mM; 2 mM.
20 μmol of either substrate was polarized in a 3.3 T polarizer operating at […] and approx. 1.2 K. Following 45 minutes polarization the samples were dissolved in 5 ml 40 mM phosphate buffer pH 7.3. In the experiments with pyruvic acid an equimolar addition of NaOH was added to neutralize the acid. 2 ml of the dissolved substrate mixture was injected into the cells in suspension. A series of 20 degree pulses every 2 s (56 scans in total) was acquired. The acquisition was started just before injection of the hyperpolarized substrate. Data are presented as maximum metabolite signals, hyperpolarized 1-^13C lactate produced from either glucose or pyruvate.

Test [5] has as its system human lymphocytes. As to the kind of experiment: Metabolism of hyperpolarized substrates in intact human lymphocytes. Type of test: cell-based. The conditions noted are these: for Metabolic conversion (a.u.) Lymphocytes: 20 million cells, maximum signal of product 1-13C lactate. As for the experimental part: Human lymphocytes were purified from whole blood. Whole blood samples were drawn from a healthy volunteer into heparinised venous blood collection tubes (Venosafe vacumtubes from Terumo). For each experiment the blood was purified freshly: Three and a half 10 mL tubes of blood were pooled in each of four 50 mL Leucosep (Greiner) tubes prepared with 15 mL Histopaque 1077 (Sigma). The Leucosep tubes were spun for 15 min at 800× g at 24 C. The plasma was removed and the white blood cells were transferred to a 50 mL falcon tube by decanting and diluted 1:2 in PBS-Mg—Ca for a total volume of 50 mL. The cells were sedimented by centrifugation at 250×g for 60 min. Diluting with trypan blue and counting in hemocytometer determined the total number of lymphocytes before sedimentation. All cells were viable and the total number of cells in each cell batch was approx. 60 million. The lymphocytes were redissolved to a concentration of 20 million cells in 500 μl 40 mM phosphate buffer pH 7.3.
as §2, §3, §4, §5, §6

For test [6], the system named is prostate cancer cells (PC-3). As to the kind of experiment: In cell 13C-NMR detection of 1-13C-lactate using 1-13C-pyruvate as hyperpolarized marker. Type of test: cell-based, human. The conditions noted are these: 5 million cells; PC-3 vs PNT-1A; FIG. 1. As for the experimental part:
Step 1: 1-^13C pyruvic acid (1286 mg, 14.4 mmol) was mixed with 25 mg of trityl radical (Tris(8-carboxy-2,2,6,6-(tetra(methoxyethyl)-benzo-[1,2-4,5′]-bis-(1,3)-dithiole-4-yl)-methyl sodium salt) (15 mM) and gadolinium trimeric complex (Gadolinium chelate of 1,3,5-tris-(N-(DO3A-acetmido)-N-methyl-4-amino-2-methylphenyl)-[1,3,5]triazinane-2,4,6-trione)) (0.6 mM). A sample of this solution (9.2 mg) was hyperpolarized for 60 minutes, at 93.900 GHz and 1.3 K. The sample was dissolved in phosphate buffer (4 ml, pH 7.3, 40 mM) with addition of sodium hydroxide (11 μl, 12M) to neutralize the acid in the hyperpolarized sample. The hyperpolarized solution was further diluted with tempered (37° C.) buffer to 30 ml.
Step 2: 500 μl of hyperpolarized sodium 1-^13C-pyruvate from step 1 was mixed into 5 million prostate cancer cells (PC-3, human prostate cell adenocarcinoma) in a 10 mm NMR tube and placed in a 9.4 T NMR magnet. Signals of 1-^13C-pyruvate and 1-^13C-lactate were detected by acquiring a set of ^13C-MR spectra every 3 s with a 15 degree RF pulse and the signal from 1-^13C-lactate was quantified.
Using an identical protocol as outlined above, a second study was performed in healthy prostate cells (PNT-1A, immortalized healthy prostate cells).

Marks after values point to notes of the source that are not given here. Bounds are passed on as bounds.

As to `O=[13C](O)/C=C/[13C](=O)O` [1,4-^13C2-fumarate], in test [1], the “concentration of 1,4-13C-malate in MDA-MB-231 cells compared to healthy breast cells” value is reported as “significantly higher”.

In the case of `CCO[13C](=O)C[13C](C)=O` [1,3-^13C2 ethyl acetoacetate], in test [2] (20 million intact PC-3 cells, FIG. 4), the “hydrolysis to 1,3-13C2 acetoacetate” value is “no conversion can be detected”. Further, in test [3], the “Metabolic conversion (a.u) 50% cancer cells” value was 632 a.u, the “Metabolic conversion (a.u) 100% cancer cells” value is listed as < 14* a.u and the “Metabolic conversion (a.u) 0% cancer cells” value came out at 1027 a.u. Also, the “hydrolysis to 1,3-13C2 acetoacetate” value in test [4] (20 million intact MCF-7 cells, FIG. 4) is given as “no conversion can be detected”. Further, the “hydrolysis to 1,3-13C2 acetoacetate” value in test [5] (20 million intact lymphocytes, FIG. 4) is listed as “hydrolysed”. Moreover, in test [5] (cancer cells quantified by limit-of-detection), the “metabolic conversion, healthy lymphocytes over cancer cells” value is reported as “approx. 33 times”.

As for `OC[C@H]1OC(O)[C@H](O)[C@@H](O)[C@@H]1O` (some centres unmarked) [^13C6-d7-glucose], the “Metabolic conversion (a.u.) PC-3 cells” value in test [2] is reported as 200 a.u. Also, in test [4], the “Metabolic conversion (a.u.) MCF-7 cells” value was 500 a.u and the “conversion in breast cancer cells over lymphocytes” value is reported as 50 times. In addition, the “Metabolic conversion (a.u.) Lymphocytes” value in test [5] is 10 a.u.

Take `CC(=O)[13C](=O)O` [1-^13C-pyruvate]: the “Metabolic conversion (a.u.) PC-3 cells” value in test [2] was 200 a.u. In test [6], the “1-13C-lactate signal in PC-3 cells compared to non-cancerous prostate cells” value is reported as “increased”. Besides, in test [3], the “Metabolic conversion (a.u) 50% cancer cells” value came out at 1853 a.u, the “Metabolic conversion (a.u) 100% cancer cells” value is on record as 337 a.u and the “Metabolic conversion (a.u) 0% cancer cells” value came to 2620 a.u. In test [4], the “Metabolic conversion (a.u.) MCF-7 cells” value is reported as 1000 a.u and the “conversion in breast cancer cells over lymphocytes” value came out at 50 times. Further, the “Metabolic conversion (a.u.) Lymphocytes” value in test [5] turned out to be 40 a.u.

The values above are taken from patent publication US20150133341A1, “Intra-Operative Cancer Diagnosis Based on a Hyperpolarized Marker” (ALBEDA INNOVATIONS APS, priority 2012, published 2015).
